Data published in the supplement of paper PMC10307832.

Columns and labels:
Experiment in all cases: relative viability (nuclei count vs DMSO), 5 days (fraction); higher = more cells survive
XMD13-2 + Lapatinib = compound: C1CC1C(=O)NC2=NNC3=C2C=CC(=C3)C4=CC(=CC=C4)C(=O)NC5CC5 [XMD13-2] + CS(=O)(=O)CCNCc1ccc(-c2ccc3ncnc(Nc4ccc(OCc5cccc(F)c5)c(Cl)c4)c3c2)o1 [Lapatinib] (partner 2 µM)
In short: (§1)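 After 5 days of treatment, lung cancer cells in 1536-well plates were fixed and stained in a single step (final 0.05% Triton X-100, 1% formaldehyde, 1 ug/ml Hoechst) and their nuclei counted on 4× images. Treatment had been applied by pin tool the day after seeding as one drug alone or as a fixed anchor-drug dose with five library-drug doses (not always all listed) in √10 steps. Relative viability is the nuclei count of treated wells divided by that of vehicle wells, and values are medians of duplicate plates.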

Dasatinib + Pemetrexed = compound: Cc1nc(Nc2ncc(C(=O)Nc3c(C)cccc3Cl)s2)cc(N2CCN(CCO)CC2)n1 [Dasatinib] + Nc1nc2[nH]cc(CCc3ccc(C(=O)N[C@@H](CCC(=O)O)C(=O)O)cc3)c2c(=O)[nH]1 [Pemetrexed] (partner 0.2 µM)
In short: as §1

ALW-II-49-7 + Pemetrexed = compound: Cc1ccc(C(=O)Nc2cccc(C(F)(F)F)c2)cc1Nc1cncc(C(N)=O)c1 [ALW-II-49-7] + Nc1nc2[nH]cc(CCc3ccc(C(=O)N[C@@H](CCC(=O)O)C(=O)O)cc3)c2c(=O)[nH]1 [Pemetrexed] (partner 0.2 µM)
In short: as §1

Dasatinib + Lapatinib = compound: Cc1nc(Nc2ncc(C(=O)Nc3c(C)cccc3Cl)s2)cc(N2CCN(CCO)CC2)n1 [Dasatinib] + CS(=O)(=O)CCNCc1ccc(-c2ccc3ncnc(Nc4ccc(OCc5cccc(F)c5)c(Cl)c4)c3c2)o1 [Lapatinib] (partner 2 µM)
In short: as §1

Cell Line | relative viability (XMD13-2 + Lapatinib; first compound 0.05 µM) | relative viability (XMD13-2 + Lapatinib; first compound 0.1581 µM) | relative viability (XMD13-2 + Lapatinib; first compound 0.5 µM) | relative viability (XMD13-2 + Lapatinib; first compound 1.581 µM) | relative viability (XMD13-2 + Lapatinib; first compound 5 µM) | relative viability (Dasatinib + Pemetrexed; first compound 0.005 µM) | relative viability (Dasatinib + Pemetrexed; first compound 0.01581 µM) | relative viability (Dasatinib + Pemetrexed; first compound 0.05 µM) | relative viability (Dasatinib + Pemetrexed; first compound 0.1581 µM) | relative viability (Dasatinib + Pemetrexed; first compound 0.5 µM) | relative viability (ALW-II-49-7 + Pemetrexed; first compound 0.08 µM) | relative viability (ALW-II-49-7 + Pemetrexed; first compound 0.253 µM) | relative viability (ALW-II-49-7 + Pemetrexed; first compound 0.8 µM) | relative viability (ALW-II-49-7 + Pemetrexed; first compound 2.53 µM) | relative viability (ALW-II-49-7 + Pemetrexed; first compound 8 µM) | relative viability (Dasatinib + Lapatinib; first compound 0.005 µM) | relative viability (Dasatinib + Lapatinib; first compound 0.01581 µM) | relative viability (Dasatinib + Lapatinib; first compound 0.05 µM) | relative viability (Dasatinib + Lapatinib; first compound 0.1581 µM) | relative viability (Dasatinib + Lapatinib; first compound 0.5 µM)
NCI-H322M | 0.641 | 0.528 | 0.593 | 0.605 | 0.724 | 0.576 | 0.495 | 0.394 | 0.273 | 0.231 | 0.609 | 0.79 | 0.659 | 0.682 | 0.537 | 0.582 | 0.345 | 0.373 | 0.246 | 0.189
NCI-H358 | 0.566 | 0.463 | 0.471 | 0.404 | 0.322 | 0.16 | 0.176 | 0.143 | 0.151 | 0.129 | 0.163 | 0.181 | 0.189 | 0.148 | 0.155 | 0.484 | 0.377 | 0.295 | 0.251 | 0.291
NCI-H460 | 1.23 | 0.925 | 1.27 | 0.908 | 0.0203 | 0.0609 | 0.062 | 0.0522 | 0.0587 | 0.0433 | 0.0507 | 0.0651 | 0.0651 | 0.0782 | 0.0738 | 1.06 | 0.598 | 0.743 | 0.482 | 0.376
NCI-H520 | 1.06 | 0.923 | 0.924 | 0.717 | 0.354 | 0.51 | 0.358 | 0.285 | 0.138 | 0.138 | 0.655 | 0.673 | 0.724 | 0.666 | 0.558 | 0.729 | 0.447 | 0.464 | 0.228 | 0.21
NCI-H596 | 1.1 | 0.942 | 1.22 | 0.989 | 1.17 | 0.486 | 0.47 | 0.439 | 0.415 | 0.359 | 0.449 | 0.47 | 0.469 | 0.503 | 0.444 | 1.03 | 0.809 | 0.714 | 0.586 | 0.423
NCI-H647 | 1.14 | 1.31 | 1.22 | 1.02 | 0.369 | 0.156 | 0.137 | 0.117 | 0.0903 | 0.0883 | 0.186 | 0.175 | 0.16 | 0.123 | 0.115 | 0.524 | 0.449 | 0.393 | 0.237 | 0.189
NCI-H650 | 0.993 | 1.06 | 0.94 | 0.752 | 0.829 | 0.989 | 0.932 | 0.818 | 0.66 | 0.418 | 0.985 | 0.962 | 0.99 | 0.917 | 0.82 | 0.471 | 0.907 | 0.723 | 0.555 | 0.387
NCI-H661 | 0.423 | 0.555 | 0.578 | 0.519 | 0.386 | 0.913 | 0.823 | 0.889 | 0.763 | 0.51 | 0.974 | 0.968 | 0.944 | 0.929 | 0.959 | 0.295 | 0.29 | 0.276 | 0.318 | 0.234
NCI-H838 | 1.17 | 1.14 | 1.13 | 1.03 | 0.959 | 0.26 | 0.241 | 0.218 | 0.176 | 0.214 | 0.237 | 0.272 | 0.243 | 0.258 | 0.25 | 0.925 | 0.678 | 0.504 | 0.252 | 0.237
NCI-H1355 | 1.13 | 0.942 | 1.05 | 0.997 | 1.06 | 1.04 | 0.92 | 1.1 | 0.806 | 0.663 | 0.964 | 1.13 | 1.01 | 1.04 | 1.07 | 0.988 | 0.902 | 0.898 | 0.704 | 0.49
NCI-H1395 | 1.56 | 0.997 | 1.08 | 0.908 | 0.945 | 0.987 | 1.01 | 0.603 | 0.369 | 0.368 | 0.894 | 0.984 | 1.18 | – | 0.621 | 0.926 | 0.954 | 0.678 | 0.479 | 0.466
NCI-H1437 | 0.911 | 0.849 | 0.858 | 0.793 | 0.683 | 0.351 | 0.336 | 0.287 | 0.256 | 0.203 | 0.324 | 0.328 | 0.345 | 0.311 | 0.243 | 0.785 | 0.784 | 0.809 | 0.752 | 0.218
NCI-H1563 | 1.06 | 0.88 | 0.967 | 0.839 | 1.08 | 0.684 | 0.625 | 0.487 | 0.458 | 0.4 | 0.73 | 0.732 | 0.718 | 0.811 | 0.713 | 0.868 | 0.708 | 0.758 | 0.656 | 0.506
NCI-H1650 | 0.865 | 0.674 | 0.809 | 0.677 | 0.227 | 0.341 | 0.38 | 0.287 | 0.285 | 0.268 | 0.352 | 0.379 | 0.383 | 0.378 | 0.406 | 0.552 | 0.5 | 0.441 | 0.381 | 0.325
NCI-H1651 | 1.09 | 0.78 | 0.906 | 1.09 | 0.751 | 0.58 | 0.506 | 0.485 | 0.545 | 0.426 | 0.5 | 0.631 | 0.615 | 0.574 | 0.441 | 0.864 | 0.573 | 0.648 | 0.625 | 0.489
NCI-H1666 | 0.63 | 0.666 | 0.979 | 0.719 | 0.441 | 0.871 | 0.848 | 0.88 | 0.73 | 0.633 | 0.783 | 0.944 | 0.831 | 0.847 | 0.785 | 0.582 | 0.482 | 0.522 | 0.447 | 0.224
